Values quoted from earlier work in PubChem BioAssay AID1259409 (Chemical Carcinogenesis Research Information System (CCRIS), 2018).

Test system: rodent chemically induced tumor inhibition, incidence and multiplicity
Experiment: CCRIS tumor inhibitor studies
Details: Species: RAT; for tumour outcome (control, treated, inhibition, significance): Carcinogen: DIETHYLNITROSAMINE, 55-18-5, N-METHYL-N-NITROSOUREA, 684-93-5, N-BUTYL-N-(4-HYDROXYBUTYL)NITROSAMINE, 3817-11-6, DIMETHY, Dose [Inhibitor]: 0, Route [Inhibitor]: ORAL, Strain/Sex: F344/MALE, Dose [Carcinogen]: 100 MG/KG BW DEN ONCE FOLLOWED BY 20 MG/KG BW MNU 4 TIMES AND 0.05% BBN IN DRINKING WATER DURING FIRST 2 WK THEN 40 MG/K, Promoter: NONE USED

Which “tumour outcome (control, treated, inhibition, significance)” value (1% IN THE DIET FOR 24 WK BEGINNING 1 DAY POST CARCINOGEN TREATMENT (STUDY DURATION: 28 WK), Target Tissue: Type of Lesion: SMALL INTESTINE: ADENOMA) does the source give for CCCCCCOc1cc(C)c(O)c(C)c1C here?
The value was 33%, 0%, 100%, p<0.05.

And the “tumour outcome (control, treated, inhibition, significance)” value (1% IN THE DIET FOR 24 WK BEGINNING 1 DAY POST CARCINOGEN TREATMENT (STUDY DURATION: 28 WK), Target Tissue: Type of Lesion: THYROID: CARCINOMA)?
Its value is 7%, 8%, -14%, not significant.

What about the “tumour outcome (control, treated, inhibition, significance)” value (1% IN THE DIET FOR 24 WK BEGINNING 1 DAY POST CARCINOGEN TREATMENT (STUDY DURATION: 28 WK), Target Tissue: Type of Lesion: URINARY BLADDER: CARCINOMA) of the same compound?
The value was 7%, 0%, 100%, not significant.

What about the “tumour outcome (control, treated, inhibition, significance)” value (1% IN THE DIET FOR 24 WK BEGINNING 1 DAY POST CARCINOGEN TREATMENT(STUDY DURATION: 28 WK), Target Tissue: Type of Lesion: SMALL INTESTINE: CARCINOMA) of the same compound?
Its value is 7%, 0%, 100%, not significant.

And the “tumour outcome (control, treated, inhibition, significance)” value (1% IN THE DIET FOR 30 D BEGINNING 1 D PRIOR TO CARCINOGEN TREATMENT (STUDY DURATION: 28 WK), Target Tissue: Type of Lesion: URINARY BLADDER: PAPILLOMA)?
The value was 7%, 21%, -200%, not significant.

And the “tumour outcome (control, treated, inhibition, significance)” value (1% IN THE DIET FOR 30 D BEGINNING 1 DAY PRIOR TO CARCINOGEN TREATMENT (STUDY DURATION: 28 WK), Target Tissue: Type of Lesion: LARGE INTESTINE: CARCINOMA)?
The value was 7%, 0%, 100%, not significant.

What about the “tumour outcome (control, treated, inhibition, significance)” value (1% IN THE DIET FOR 30 D BEGINNING 1 DAY PRIOR TO CARCINOGEN TREATMENT (STUDY DURATION: 28 WK), Target Tissue: Type of Lesion: SMALL INTESTINE: ADENOMA) of the same compound?
The value was 33%, 14%, 58%, not significant.

What about the “tumour outcome (control, treated, inhibition, significance)” value (1% IN THE DIET FOR 30 D BEGINNING 1 DAY PRIOR TO CARCINOGEN TREATMENT (STUDY DURATION: 28 WK), Target Tissue: Type of Lesion: THYROID: CARCINOMA) of the same compound?
The value was 7%, 0%, 100%, not significant.

And the “tumour outcome (control, treated, inhibition, significance)” value (1% IN THE DIET FOR 30 D BEGINNING 1 DAY PRIOR TO CARCINOGEN TREATMENT (STUDY DURATION: 28 WK), Target Tissue: Type of Lesion: URINARY BLADDER: CARCINOMA)?
Its value is 7%, 14%, -100%, not significant.

And the outcome (Carcinogen: SUBCUTANEOUS, Dose [Inhibitor]: 1,2-DIMETHYLHYDRAZINE [540-73-8], Route [Inhibitor]: 0.125% IN DIET FOR 32 WK BEGINNING 1 WK POST LAST CARCINOGEN DOSE (STUDY DURATION: 36 WK), Strain/Sex: ORAL, Target Tissue: Type of Lesion: 20/21 (95%), 21/21 (100%), -5%, NOT SIGNIFICANT, Dose [Carcinogen]: 2-AMINO-1-METHYL-6-PHENYLIMIDAZO[4,5-B]PYRIDINE [105650-23-5], Promoter: ORAL)?
Its outcome is 9.1, 6.2, 32%, not significant.
